Our source for the RP-LC retention time values is the METLIN SMRT retention time set (Domingo-Almenara et al. 2019).

The data set in a line: gradient 5% acetonitrile 3 min, to 50% in 2 min, to 85% in 15 min, held 3 min, 100 µL/min. The following applies: column: Zorbax Extend-C18 2.1 x 50 mm; eluents: water / acetonitrile, 0.1% formic acid. Put shortly: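 Pure standards were run in mixtures of ~100 molecules by HPLC coupled to a quadrupole time-of-flight mass spectrometer. The column was a Zorbax Extend-C18 (2.1 × 50 mm, 1.8 μm) at 100 μL/min, with water and acetonitrile each containing 0.1% formic acid, in positive and negative ionization mode. Dead and dwell volumes were 40 μL and 900 μL. Retention time was taken from computationally picked adduct peaks, each manually inspected, with data collected over 3 months.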
The compound `COc1ccc(NC(=O)Cn2ncc3c(c2=O)N(CC2CC2)C(=O)CS3)cc1Cl` returned an RP-LC retention time of 808 s.
On to `CCC(C(=O)Nc1ccc(-c2cn3ccc(C)nc3n2)cc1)c1ccccc1` (centres undefined), for which the RP-LC retention time stood at 705 s.
`COc1ccc(Nc2c(-c3ccc(N4CCOCC4)cc3)nc3ncccn23)cc1OC` had an RP-LC retention time of 619 s.
With `Cc1cccc(C)c1-n1ccn(Cc2nc(-c3ccc(F)c(Cl)c3)no2)c(=O)c1=O`, the RP-LC retention time stood at 976 s.
`CCC(NC(=O)C1CCCN(c2cnc3nccnc3c2)C1)c1cccs1` (centres undefined) registered an RP-LC retention time of 728 s.
As for `CCOC(=O)c1cc(S(=O)(=O)N2CCCC2C(=O)Nc2ccccc2)cn1C` (centres undefined), the RP-LC retention time stood at 903 s.
The compound `CNC(=O)[C@@H]1C[C@H](Oc2ccccc2)CN1C(=O)C1CCC1` yielded an RP-LC retention time of 680 s.
With `COc1ccc(F)cc1S(=O)(=O)N1CCCC(Cn2c(C)nc3cccnc32)C1` (centres undefined), the RP-LC retention time was found to be 680 s.
With `O=C(NCCOc1ccc(F)cc1)C(=O)Nc1ccc(Cl)cn1`, the RP-LC retention time is 912 s.
With `COc1cccc(S(=O)(=O)N2C[C@@H]3C[C@H]2C[C@@H]3NC(=O)c2cccs2)c1`, the RP-LC retention time was determined as 854 s.
With `CCOc1ccccc1NS(=O)(=O)c1cc2c3c(c1)CCC(=O)N3CCC2`, the RP-LC retention time is 548 s.
As for `O=C(Cc1ccsc1)NCCn1c(=O)n(Cc2ccccc2)c2cccnc21`, the figure is 772 s.
Take `CCC1CN(C(=O)N2CCC(C(=O)NCCc3ccco3)CC2)c2cc(C)ccc2O1` (centres undefined): the RP-LC retention time stood at 706 s.
With `CN(C)C(=O)Cc1ccc(NC(=O)Cc2ccc(-c3ccccc3)cc2)cc1`, the RP-LC retention time was 795 s.
Compound `CC(=O)c1cccc(NC(=O)Cn2nc3c4cc(-c5ccccc5)nn4ccn3c2=O)c1` gave an RP-LC retention time of 822 s.
`COc1nn(C)cc1C(=O)Nc1cc(C)ns1` gave an RP-LC retention time of 598 s.
In turn, `CSc1cccc(NC(=O)Cn2c(Nc3cc(C)cc(C)c3)nc(C)cc2=O)c1` yielded an RP-LC retention time of 909 s.
Take `CCc1ccc(NC(=O)c2cc(CC)n3nccc3n2)cc1`: the RP-LC retention time was 1140 s.
The same measure for `O=C(Cc1csc(NC(=O)c2ccco2)n1)Nc1ccc2c(c1)OCCO2`: 670 s.
On to `O=C(c1cccc2[nH]ccc12)N1CCN(c2cc(-c3cccs3)[nH]n2)CC1`, for which the RP-LC retention time is 832 s.
`CCCNC(=O)c1cc(=O)[nH]c2ccc(F)cc12` gave an RP-LC retention time of 635 s.
In turn, `COc1ccc(-c2cc(N3CCC(NC(=O)c4ccc5c(c4)OCO5)C3)n[nH]2)cc1` (centres undefined) came in with an RP-LC retention time of 690 s.
`Cc1nc(-c2ccc(C(=O)N3CCC(C)CC3)cc2)no1` had an RP-LC retention time of 840 s.
Take `CC(NC(=O)c1cc(F)cc(F)c1)C(=O)Nc1nc2ccccc2[nH]1` (centres undefined): the RP-LC retention time was 655 s.
As for `CN1CCN(S(=O)(=O)c2cc(-c3nnc(C4CCCC4)o3)co2)CC1`, the figure is 619 s.
`Cc1cccc(N2CCN(C(=O)C3CCN(c4ncnc5c4oc4ccccc45)CC3)CC2)c1C` gave an RP-LC retention time of 1030 s.
With `Cc1ccc(Nc2c(-c3ccc(Cl)cc3)nc3cnccn23)cc1Cl`, the RP-LC retention time is 1150 s.
`O=C(C1=CN(c2ccc(Cl)cc2)c2cc(Cl)ccc2S1(=O)=O)N1CCOCC1` yielded an RP-LC retention time of 875 s.
Regarding `Cc1ccc(Cn2cccc2C(=O)C(=O)N2CCN(c3ccccn3)CC2)cc1C`, the RP-LC retention time is 726 s.
In turn, `O=C(Oc1ccccc1)N(c1ccccc1)c1ccccc1` showed an RP-LC retention time of 1160 s.
The compound `Cc1cc(C)cc(C(=O)NC2(c3nc(-c4ccccc4)no3)CCCCC2)c1` registered an RP-LC retention time of 1280 s.
The compound `O=C(Nc1ccc(Cl)cc1)C1CCCN(S(=O)(=O)c2c[nH]c(C(=O)N3CCCCCC3)c2)C1` (centres undefined) returned an RP-LC retention time of 959 s.
In the case of `CC1CCN(C(=O)CN2C(=O)CCCc3cc(S(=O)(=O)N4CCC(C)CC4)ccc32)CC1`, the RP-LC retention time was found to be 987 s.
`Cc1ccc(OC(=O)c2cc3c(C)nn(-c4ccccc4)c3s2)cc1C` showed an RP-LC retention time of 979 s.
The compound `CCNC(=O)c1n[nH]c2c1CC(C(C)(C)C)CC2` (centres undefined) yielded an RP-LC retention time of 840 s.
Compound `Nc1ncnc(Nc2cccc3c2CCCC3)c1[N+](=O)[O-]` yielded an RP-LC retention time of 838 s.
As to `COc1cccc(-c2noc(C3CC(=O)N(c4cccc(Cl)c4)C3)n2)c1OC` (centres undefined), the RP-LC retention time was 936 s.
In the case of `Cn1c(=O)c2cc(C(=O)N3CCN(c4ccccn4)CC3)sc2n(C)c1=O`, the RP-LC retention time was found to be 578 s.
The same measure for `CN1C(=O)[C@H]2CN(Cc3cccc(Cl)c3F)C[C@H]2C1=O`: 649 s; for `O=C(Nc1nccs1)C1CCN(Cc2noc(-c3ccc(F)cc3)n2)CC1`: 643 s.
`CCOC(=O)C1CCCN(C(=O)CCCOc2cc(=O)n(C)c3ccccc23)C1` (centres undefined) showed an RP-LC retention time of 800 s.
The same measure for `CCN(C(=O)Nc1ccccc1C(=O)OC)c1nc(-c2ccc(C3CCCCC3)cc2)cs1`: 590 s; for `Cc1cc(C)c2c(n1)SCC(=O)N2CCCC(=O)NCCCN1CC(C)CC(C)C1` (centres undefined): 595 s.
In turn, `NS(=O)(=O)c1cccnc1Nc1cccc(C(F)(F)F)c1` had an RP-LC retention time of 932 s.
As to `O=C1Nc2ccccc2C1(c1ccc(O)cc1)c1ccc(O)cc1`, the RP-LC retention time stood at 755 s.
As for `CCOC(=O)c1sc2ccccc2c1S(=O)(=O)Nc1ccc2c(c1)OCO2`, the RP-LC retention time is 968 s.
The same measure for `COc1ccc(OC)c(NC(=O)C2Cn3cccc3C(=O)N2C)c1` (centres undefined): 699 s; for `O=C(CN1C(=O)C2CCCCN2c2ccc(C(=O)N3CCCC3)cc21)NCC1COCCO1` (centres undefined): 627 s; for `O=C1CC(c2ccccc2F)Cc2nc(N3CCN(c4ccccn4)CC3)ncc21` (centres undefined): 702 s.
Take `O=C(CCc1ccccc1)NC1CCN(c2nnc3ccccn23)CC1`: the RP-LC retention time was 633 s.
`COc1ccc(N2CC(c3nc(-c4ccccc4F)no3)CC2=O)c(OC)c1` (centres undefined) gave an RP-LC retention time of 863 s.
Consider `CC(C)NC(=O)c1ccc2ncnc(N3CCCCC3)c2c1`, for which the RP-LC retention time worked out at 586 s.
As for `CCCCN(C)C(=O)Cn1c(C2CCCN2C(C)=O)nc2ccccc21` (centres undefined), the RP-LC retention time was determined as 627 s.
In the case of `COc1ccc(S(=O)(=O)N2CCCC(Cn3c(C)nc4cccnc43)C2)cc1` (centres undefined), the RP-LC retention time turned out to be 688 s.
Take `N#Cc1ccc(C(=O)NC(c2ccccc2)c2nnc(N3CCCCC3)o2)cc1` (centres undefined): the RP-LC retention time is 740 s.
Regarding `Cc1ccccc1-c1noc(Cn2c(=O)n(Cc3ccccc3Cl)c(=O)c3sccc32)n1`, the RP-LC retention time stood at 1200 s.
As to `CCn1c(=O)sc2cc(S(=O)(=O)N3CCC(C(=O)Nc4ccc(C)cc4)CC3)ccc21`, the RP-LC retention time is 940 s.
`CCOc1ccccc1CNc1nc2ccncc2n(CC)c1=O` had an RP-LC retention time of 683 s.
The compound `Cc1cccc(NC(=O)C2CCCN2S(=O)(=O)c2cc3c(cc2C)NC(=O)CO3)c1` (centres undefined) displayed an RP-LC retention time of 763 s.
In turn, `Cc1nc2ccccn2c(=O)c1Cc1nnc(SCC(=O)NCc2nc3ccccc3[nH]2)n1C` yielded an RP-LC retention time of 544 s.
Compound `CCOC(=O)c1ccc(NC(=O)Cc2csc3nc(-c4ccc(OC)c(OC)c4)cn23)cc1` showed an RP-LC retention time of 756 s.
In turn, `O=C(NCCCn1ccnc1)C1CC(=O)N(CCc2c[nH]c3ccc(F)cc23)C1` (centres undefined) yielded an RP-LC retention time of 594 s.
Regarding `CC(=O)c1ccn(S(=O)(=O)c2ccc(C)cc2)c1`, the RP-LC retention time amounted to 804 s.
As for `COc1ccc(-c2cc(N3CCC(NC(=O)c4cccc(Br)c4)C3)n[nH]2)cc1` (centres undefined), the figure is 738 s.
Compound `O=C(Nc1cccnc1)c1ccc(S(=O)(=O)NC2CC2)cc1` had an RP-LC retention time of 552 s.
As for `COc1ccc(-c2noc(C3CCCN3C(=O)c3ccccc3)n2)cc1` (centres undefined), the figure is 907 s; as for `COc1ccc(OCC(=O)Nc2nc(C)cc(C)c2-c2noc(C)n2)cc1`, 783 s.
The same measure for `Fc1ccc(OCc2nc(-c3ccc(-c4csc(C5CC5)n4)cc3)no2)cc1`: 1330 s.
Regarding `O=C(Nc1ccccc1)N1CC(Oc2ccc(-c3nc(-c4ccccc4)no3)cc2)C1`, the RP-LC retention time was 1150 s.
Compound `O=C(Cn1c2ccccc2c2ncn(Cc3nc(C4CC4)no3)c(=O)c21)NCCC1=CCCCC1` showed an RP-LC retention time of 940 s.
`CCOc1ccc(CC(=O)N2CCC3(CC2)N=C(c2ccccc2)NO3)cc1`: the RP-LC retention time is 780 s.
The same measure for `O=C(CF)N(O)c1ccc(/C=C/c2ccccc2)cc1`: 959 s.
`Cc1ccc(F)cc1NC(=O)Cn1nc(N2CCCCCC2)c2ccccc2c1=O` showed an RP-LC retention time of 1140 s.
`O=C(NCc1ccc(F)cc1)C1CCN(C(=O)c2ncn3c2COC(c2ccc(F)cc2)C3)CC1` (centres undefined) showed an RP-LC retention time of 784 s.
`C=CCNC(=O)c1cn(-c2ccc(-c3nc(C(C)(C)C)no3)cn2)cn1` returned an RP-LC retention time of 883 s.
For `O=C(c1ccccc1OCc1nc(-c2ccccc2)no1)N1CCCCC1`, the RP-LC retention time stood at 950 s.
Compound `COc1ccccc1NC(=O)CN1C(=O)NC2(CCC(C)CC2)C1=O` (centres undefined) displayed an RP-LC retention time of 803 s.
`CC(C)OCCCNC(=O)C1CCN(c2ncnc3c2oc2ccccc23)CC1` gave an RP-LC retention time of 662 s.
As for `Cc1ccc(-c2csc(NC(=O)COc3ccc(Cl)cc3C)n2)cc1`, the figure is 1350 s.
